{"source": "patent US11400063B2", "about": "“Early administration of low-dose colchicine after myocardial infarction” (INSTITUT DE CARDIOLOGIE DE MONTREAL, priority 2019, dated 2022)", "tested_on": "patients recruited within 30 days after a myocardial infarction", "assay": "COLCOT randomized double-blind trial, efficacy end points, colchicine 0.5 mg once daily vs placebo", "format": "in vivo, human", "method": "We performed a randomized, double-blind trial involving patients recruited within 30 days after a myocardial infarction. The patients were randomly assigned to receive either low-dose colchicine (0.5 mg once daily) or placebo. A total of 4745 patients were enrolled; 2386 patients were assigned to the colchicine group, and 2379 to the placebo group. Patients were followed for a median of 22.6 months.\nThe primary efficacy end point was a composite of death from cardiovascular causes, resuscitated cardiac arrest, myocardial infarction (e.g., acute myocardial infraction or type II myocardial infarction), stroke, or urgent hospitalization for angina leading to coronary revascularization. The components of the primary end point and safety were also assessed.\nCOLCOT was an international multicenter, randomized, double-blinded trial that randomly assigned patients to receive either low-dose colchicine (0.5 mg once daily) or placebo. The study protocol and main results have been published (see, Tardif et al., N Engl J Med 2019). […] Main exclusion criteria were severe heart failure, reduced left ventricular ejection fraction (<35%), recent stroke (<3 months), type 2 MI, recent (<3 years) or planned coronary artery bypass graft (CABG), history of cancer (<3 years), and inflammatory bowel disease or chronic diarrhea. All patients enrolled in the trial benefited from percutaneous coronary intervention whenever indicated and guidelines-directed management of CV disease prior to randomization (see. Tardif et al., N Engl J Med 2019).\nClinical follow-up consisted of evaluations at 1 and 3 months after randomization and every 3 months thereafter. An independent clinical endpoint committee, blinded to trial-group assignment, adjudicated clinical endpoints. The trial was locally approved by the various institutional review boards, and all patients signed a written informed consent before enrollment.\nThe primary efficacy endpoint was a composite of CV death, resuscitated cardiac arrest, MI, stroke, or urgent hospitalization for angina requiring coronary revascularization. The secondary endpoints consisted of the components of the primary efficacy endpoint, all-cause death, and a composite of CV death, resuscitated cardiac arrest, MI, or stroke. Exploratory endpoints included all coronary revascularizations, including both elective and urgent coronary revascularizations.\nThe primary efficacy endpoint was a composite of cardiovascular death, MI, ischemic stroke, and urgent coronary revascularization. Secondary efficacy endpoints consisted of the components of the primary endpoint, composite of cardiovascular death, MI, and ischemic stroke, as well as deep vein thrombosis or pulmonary embolus, and atrial fibrillation (AF). To maximize consistency in pooling efficacy endpoints among trials, the primary and secondary composite efficacy and stroke endpoints in COLCOT were modified to meet the definition of primary and stroke endpoints of the LoDoCo2 trial. Therefore, adjudicated events of resuscitated cardiac arrest and non-ischemic stroke in COLCOT were excluded from the pooled primary endpoint. The component endpoint of stroke was also restricted to include only ischemic strokes. Incidence rates and hazards ratios (HRs) were calculated for the new primary composite endpoint and ischemic stroke endpoint using individual patient data from COLCOT.\nThe COLCOT trial was performed as follows. A randomized, double-blind trial involving patients recruited within 30 days after a myocardial infarction was performed. The patients were randomly assigned to receive either low-dose colchicine (0.5 mg once daily) or placebo. A total of 4745 patients were enrolled; 2386 patients were assigned to the colchicine group, and 2379 to the placebo group. […]", "key": {"[1]": {"details": "per-protocol population, colchicine vs placebo"}, "[2]": {"details": "subgroup History of diabetes: No"}, "[3]": {"details": "subgroup History of diabetes: Yes"}, "[4]": {"details": "subgroup History of hypertension: No"}, "[5]": {"details": "subgroup History of hypertension: Yes"}, "[6]": {"details": "subgroup Prior PCI or CABG: Yes"}, "[7]": {"details": "subgroup Prior stroke or TIA: No"}, "[8]": {"details": "subgroup Prior stroke or TIA: Yes"}, "[9]": {"details": "subgroup Smoking: Active smoker"}, "[10]": {"details": "subgroup Smoking: Previous smoker"}, "[11]": {"details": "subgroup White blood cell count: Above median"}, "[12]": {"details": "subgroup White blood cell count: Below median"}}, "data": [{"smiles": "COc1cc2c(c(OC)c1OC)-c1ccc(OC)c(=O)cc1[C@@H](NC(C)=O)CC2", "note": "[Colchicine, colchicine]", "values": [{"measurement": "Resuscitated cardiac arrest, % of patients", "setting": "per-protocol population", "result": "(0.2%)"}, {"measurement": "Resuscitated cardiac arrest, no. of patients", "setting": "per-protocol population", "result": 5, "unit": "no."}, {"measurement": "Stroke, % of patients", "setting": "per-protocol population", "result": "(0.2%)"}, {"measurement": "Stroke, no. of patients", "setting": "per-protocol population", "result": 5, "unit": "no."}, {"measurement": "Urgent hospitalization for angina requiring revascularization, % of patients", "setting": "per-protocol population", "result": "(1.0%)"}, {"measurement": "Urgent hospitalization for angina requiring revascularization, no. of patients", "setting": "per-protocol population", "result": 22, "unit": "no."}, {"measurement": "Primary endpoint, no. of patients", "setting": "per-protocol population, N = 2260", "result": 115, "unit": "no."}, {"measurement": "MI, Hazard Ratio (95% CI)", "setting": "[1]", "result": "0.84 (0.62-1.14)"}, {"measurement": "Primary endpoint, Hazard Ratio (95% CI)", "setting": "[1]", "result": "0.71 (0.56-0.90)"}, {"measurement": "Resuscitated cardiac arrest, Hazard Ratio (95% CI)", "setting": "[1]", "result": "1.00 (0.29-3.46)"}, {"measurement": "Stroke, Hazard Ratio (95% CI)", "setting": "[1]", "result": "0.26 (0.10-0.71)"}, {"measurement": "Urgent hospitalization for angina requiring revascularization, Hazard Ratio (95% CI)", "setting": "[1]", "result": "0.47 (0.28-0.78)"}, {"measurement": "Primary efficacy composite endpoint, % of patients", "setting": "[2]", "result": "(4.8%)"}, {"measurement": "Primary efficacy composite endpoint, Hazard ratio (95% CI)", "setting": "[2]", "result": "0.85 (0.64; 1.13)"}, {"measurement": "Primary efficacy composite endpoint, no. of patients with event/total no. of patients", "setting": "[2]", "result": "91/1904"}, {"measurement": "Primary efficacy composite endpoint, % of patients", "setting": "[3]", "result": "(8.7%)"}, {"measurement": "Primary efficacy composite endpoint, Hazard ratio (95% CI)", "setting": "[3]", "result": "0.65 (0.44; 0.96)"}, {"measurement": "Primary efficacy composite endpoint, no. of patients with event/total no. of patients", "setting": "[3]", "result": "40/462"}, {"measurement": "Primary efficacy composite endpoint, % of patients", "setting": "[4]", "result": "(4.1%)"}, {"measurement": "Primary efficacy composite endpoint, Hazard ratio (95% CI)", "setting": "[4]", "result": "0.80 (0.54; 1.17)"}, {"measurement": "Primary efficacy composite endpoint, no. of patients with event/total no. of patients", "setting": "[4]", "result": "48/1181"}, {"measurement": "Primary efficacy composite endpoint, % of patients", "setting": "[5]", "result": "(7.0%)"}, {"measurement": "Primary efficacy composite endpoint, Hazard ratio (95% CI)", "setting": "[5]", "result": "0.76 (0.57; 1.01)"}, {"measurement": "Primary efficacy composite endpoint, no. of patients with event/total no. of patients", "setting": "[5]", "result": "83/1185"}, {"measurement": "Primary efficacy composite endpoint, % of patients", "setting": "subgroup Prior MI: No", "result": "(4.3%)"}, {"measurement": "Primary efficacy composite endpoint, Hazard ratio (95% CI)", "setting": "subgroup Prior MI: No", "result": "0.68 (0.51; 0.89)"}, {"measurement": "Primary efficacy composite endpoint, no. of patients with event/total no. of patients", "setting": "subgroup Prior MI: No", "result": "85/1996"}, {"measurement": "Primary efficacy composite endpoint, % of patients", "setting": "subgroup Prior MI: Yes", "result": "(12.4%)"}, {"measurement": "Primary efficacy composite endpoint, Hazard ratio (95% CI)", "setting": "subgroup Prior MI: Yes", "result": "1.05 (0.70; 1.58)"}, {"measurement": "Primary efficacy composite endpoint, no. of patients with event/total no. of patients", "setting": "subgroup Prior MI: Yes", "result": "46/370"}, {"measurement": "Primary efficacy composite endpoint, % of patients", "setting": "subgroup Prior PCI or CABG: No", "result": "(4.3%)"}, {"measurement": "Primary efficacy composite endpoint, Hazard ratio (95% CI)", "setting": "subgroup Prior PCI or CABG: No", "result": "0.72 (0.54; 0.95)"}, {"measurement": "Primary efficacy composite endpoint, no. of patients with event/total no. of patients", "setting": "subgroup Prior PCI or CABG: No", "result": "83/1947"}, {"measurement": "Primary efficacy composite endpoint, % of patients", "setting": "[6]", "result": "(11.5%)"}, {"measurement": "Primary efficacy composite endpoint, Hazard ratio (95% CI)", "setting": "[6]", "result": "0.91 (0.62; 1.34)"}, {"measurement": "Primary efficacy composite endpoint, no. of patients with event/total no. of patients", "setting": "[6]", "result": "48/419"}, {"measurement": "Primary efficacy composite endpoint, % of patients", "setting": "[7]", "result": "(5.3%)"}, {"measurement": "Primary efficacy composite endpoint, Hazard ratio (95% CI)", "setting": "[7]", "result": "0.76 (0.60; 0.96)"}, {"measurement": "Primary efficacy composite endpoint, no. of patients with event/total no. of patients", "setting": "[7]", "result": "123/2311"}, {"measurement": "Primary efficacy composite endpoint, % of patients", "setting": "[8]", "result": "(14.5%)"}, {"measurement": "Primary efficacy composite endpoint, Hazard ratio (95% CI)", "setting": "[8]", "result": "1.09 (0.42; 2.82)"}, {"measurement": "Primary efficacy composite endpoint, no. of patients with event/total no. of patients", "setting": "[8]", "result": "8/55"}, {"measurement": "Primary efficacy composite endpoint, % of patients", "setting": "subgroup Sex: Female", "result": "(7.8%)"}, {"measurement": "Primary efficacy composite endpoint, Hazard ratio (95% CI)", "setting": "subgroup Sex: Female", "result": "0.99 (0.63; 1.58)"}, {"measurement": "Primary efficacy composite endpoint, no. of patients with event/total no. of patients", "setting": "subgroup Sex: Female", "result": "37/472"}, {"measurement": "Primary efficacy composite endpoint, % of patients", "setting": "subgroup Sex: Male", "result": "(5.0%)"}, {"measurement": "Primary efficacy composite endpoint, Hazard ratio (95% CI)", "setting": "subgroup Sex: Male", "result": "0.70 (0.54; 0.91)"}, {"measurement": "Primary efficacy composite endpoint, no. of patients with event/total no. of patients", "setting": "subgroup Sex: Male", "result": "94/1894"}, {"measurement": "Primary efficacy composite endpoint, % of patients", "setting": "[9]", "result": "(5.4%)"}, {"measurement": "Primary efficacy composite endpoint, Hazard ratio (95% CI)", "setting": "[9]", "result": "0.93 (0.60; 1.44)"}, {"measurement": "Primary efficacy composite endpoint, no. of patients with event/total no. of patients", "setting": "[9]", "result": "38/708"}, {"measurement": "Primary efficacy composite endpoint, % of patients", "setting": "subgroup Smoking: Non-smoker", "result": "(6.0%)"}, {"measurement": "Primary efficacy composite endpoint, Hazard ratio (95% CI)", "setting": "subgroup Smoking: Non-smoker", "result": "0.90 (0.61; 1.34)"}, {"measurement": "Primary efficacy composite endpoint, no. of patients with event/total no. of patients", "setting": "subgroup Smoking: Non-smoker", "result": "47/787"}, {"measurement": "Primary efficacy composite endpoint, % of patients", "setting": "[10]", "result": "(5.3%)"}, {"measurement": "Primary efficacy composite endpoint, Hazard ratio (95% CI)", "setting": "[10]", "result": "0.59 (0.41; 0.85)"}, {"measurement": "Primary efficacy composite endpoint, no. of patients with event/total no. of patients", "setting": "[10]", "result": "46/871"}, {"measurement": "Primary efficacy composite endpoint, % of patients", "setting": "[11]", "result": "(5.3%)"}, {"measurement": "Primary efficacy composite endpoint, Hazard ratio (95% CI)", "setting": "[11]", "result": "0.80 (0.51; 1.25)"}, {"measurement": "Primary efficacy composite endpoint, no. of patients with event/total no. of patients", "setting": "subgroup White blood cell count: Above median (8.64 × 10^3/μL)", "result": "34/637"}, {"measurement": "Primary efficacy composite endpoint, % of patients", "setting": "[12]", "result": "(6.2%)"}, {"measurement": "Primary efficacy composite endpoint, Hazard ratio (95% CI)", "setting": "[12]", "result": "0.85 (0.56; 1.29)"}, {"measurement": "Primary efficacy composite endpoint, no. of patients with event/total no. of patients", "setting": "subgroup White blood cell count: Below median (8.64 × 10^3/μL)", "result": "41/660"}]}]}
